Patent US20170101407A1, “6-CHLORINE-SUBSTITUTED IMIDAZO[1,2-A]PYRIDINE CARBOXAMIDES AND THE USE THEREOF AS SOLUBLE GUANYLATE CYCLASE STIMULATORS” (Bayer Pharma Aktiengesellschaft, priority 2014, published 2017)

Test system: recombinant guanylate cyclase reporter cell line
Assay: Effect on a recombinant guanylate cyclase reporter cell line
Assay type: cell-based
Settings: in some cases mean values for individual determinations
Description: B-2. Effect on a Recombinant Guanvlate Cyclase Reporter Cell Line
The cellular activity of the compounds according to the invention is determined using a recombinant guanylate cyclase reporter cell line, as described in F. Wunder et al., Anal. Biochem. 339, 104-112 (2005).
Representative MEC values (MEC=minimum effective concentration) for the compounds of the invention are shown in the table below (in some cases as mean values for individual determinations): […]

Row | Compound | MEC (minimum effective concentration) [µM]
1 | Cc1nc2c(OCc3c(F)cccc3F)cc(Cl)cn2c1C(=O)NCC(C)(N)CCF (racemic) [Example 7, rac-N-(2-Amino-4-fluoro-2-methylbutyl)-6-chloro-8-[(2,6-difluorobenzyl)oxy]-2-methylimidazo[1,2-a]pyridine-3-carboxamide (racemate)] | 0.1
2 | Cc1nc2c(OCc3c(F)cccc3F)cc(Cl)cn2c1C(=O)NCC(C)(N)CCCF (single isomer, unassigned; enantiomer a) [Example 3, ent-N-(2-Amino-5-fluoro-2-methylpentyl)-6-chloro-8-[(2,6-difluorobenzyl)oxy]-2-methylimidazo[1,2-a]pyridine-3-carboxamide (enantiomer A)] | 0.1
3 | Cc1nc2c(OCc3c(F)cccc3F)cc(Cl)cn2c1C(=O)NCC(C)(N)CC(F)F (single isomer, unassigned; enantiomer a) [Example 5, ent-N-(2-Amino-4,4-difluoro-2-methylbutyl)-6-chloro-8-[(2,6-difluorobenzyl)oxy]-2-methylimidazo[1,2-a]pyridine-3-carboxamide (enantiomer A)] | 0.3
4 | Cc1nc2c(OCc3c(F)cccc3F)cc(Cl)cn2c1C(=O)NCC(C)(N)CCF (single isomer, unassigned; enantiomer a) [Example 8, ent-N-(2-Amino-4-fluoro-2-methylbutyl)-6-chloro-8-[(2,6-difluorobenzyl)oxy]-2-methylimidazo[1,2-a]pyridine-3-carboxamide (enantiomer A)] | 0.1
5 | Cc1nc2c(OCc3c(F)cccc3F)cc(Cl)cn2c1C(=O)NCC(C)(N)CF (single isomer, unassigned; enantiomer b) [Example 1, ent-N-(2-Amino-3-fluoro-2-methylpropyl)-6-chloro-8-[(2,6-difluorobenzyl)oxy]-2-methylimidazo[1,2-a]pyridine-3-carboxamide (enantiomer B)] | 0.3
6 | Cc1nc2c(OCc3c(F)cccc3F)cc(Cl)cn2c1C(=O)NCC(C)(N)CCC(F)(F)F (single isomer, unassigned; enantiomer b) [Example 2, ent-N-(2-Amino-5,5,5-trifluoro-2-methylpentyl)-6-chloro-8-[(2,6-difluorobenzyl)oxy]-2-methylimidazo[1,2-a]pyridine-3-carboxamide (enantiomer B)] | 0.3
7 | Cc1nc2c(OCc3c(F)cccc3F)cc(Cl)cn2c1C(=O)NCC(C)(N)CCCF (single isomer, unassigned; enantiomer b) [Example 4, ent-N-(2-Amino-5-fluoro-2-methylpentyl)-6-chloro-8-[(2,6-difluorobenzyl)oxy]-2-methylimidazo[1,2-a]pyridine-3-carboxamide (enantiomer B)] | 0.1
8 | Cc1nc2c(OCc3c(F)cccc3F)cc(Cl)cn2c1C(=O)NCC(C)(N)CC(F)F (single isomer, unassigned; enantiomer b) [Example 6, ent-N-(2-Amino-4,4-difluoro-2-methylbutyl)-6-chloro-8-[(2,6-difluorobenzyl)oxy]-2-methylimidazo[1,2-a]pyridine-3-carboxamide (enantiomer B)] | 0.3
9 | Cc1nc2c(OCc3c(F)cccc3F)cc(Cl)cn2c1C(=O)NCC(C)(N)CCF (single isomer, unassigned; enantiomer b) [Example 9, ent-N-(2-Amino-4-fluoro-2-methylbutyl)-6-chloro-8-[(2,6-difluorobenzyl)oxy]-2-methylimidazo[1,2-a]pyridine-3-carboxamide (enantiomer B)] | 0.1
